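Values below derive from 48-hour exposures of cells grown in 96-well plates, with endpoints linearly interpolated between the two concentrations bracketing the appropriate inhibition level. TGI marks complete inhibition of growth.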
Assays:
Assay in all cases: DTP human tumour cell line panel, 48 h
[1] = test system: A549 NSCLC
[2] = test system: M14 melanoma
[3] = test system: HT29 colon
[4] = test system: OVCAR-3 ovarian
[5] = test system: HS 578T breast
[6] = test system: NCI-H23 lung
[7] = test system: SK-MEL-28 melanoma
[8] = test system: 786-0 renal
[9] = test system: HL-60(TB) leukemia
[10] = test system: KM12 colon
[11] = test system: K-562 leukemia
[12] = test system: MCF7 breast
[13] = test system: SNB-19 CNS
[14] = test system: EKVX NSCLC
[15] = test system: HCT-116 colon
[16] = test system: OVCAR-8 ovarian
[17] = test system: BT-549 breast
[18] = test system: MOLT-4 leukemia
[19] = test system: SF-295 CNS
[20] = test system: RPMI-8226 leukemia
[21] = test system: SK-OV-3 ovarian
[22] = test system: NCI/ADR-RES ovarian
[23] = test system: SR leukemia
[24] = test system: MDA-MB-231 breast
[25] = test system: SF-268 CNS
[26] = test system: RXF 393 renal
[27] = test system: PC-3 prostate
[28] = test system: DU-145 prostate
[29] = test system: U251 CNS
[30] = test system: CAKI-1 renal
[31] = test system: IGROV1 ovarian
[32] = test system: UACC-62 melanoma
[33] = test system: CCRF-CEM leukemia
[34] = test system: TK-10 renal
[35] = test system: ACHN renal
[36] = test system: T-47D breast
[37] = test system: HCT-15 colon
[38] = test system: MDA-N
[39] = test system: NCI-H522 lung
[40] = test system: SN12C renal
[41] = test system: OVCAR-5 ovarian
[42] = test system: COLO 205 colon
[43] = test system: SK-MEL-5 melanoma
[44] = test system: UO-31 renal
[45] = test system: NCI-H460 lung
[46] = test system: MALME-3M melanoma
[47] = test system: LOX IMVI melanoma
[48] = test system: OVCAR-4 ovarian
[49] = test system: MDA-MB-435
[50] = test system: HOP-62 NSCLC
[51] = test system: UACC-257 melanoma
[52] = test system: SNB-75 CNS
[53] = test system: HCC-2998 colon
[54] = test system: NCI-H226 lung
[55] = test system: SW-620 colon
[56] = test system: HOP-92 NSCLC
[57] = test system: SK-MEL-2 melanoma
[58] = test system: A498 renal
[59] = test system: SF-539 CNS

## COc1ccc(C2Oc3ccc(Cl)cc3C=C2[N+](=O)[O-])cc1 (stereo not given)
[1]
  TGI: > 100 µM
[2]
  TGI: > 100 µM
[3]
  TGI: > 100 µM
[4]
  TGI: > 100 µM
[5]
  TGI: > 100 µM
[6]
  TGI: > 100 µM
[7]
  TGI: > 100 µM
[8]
  TGI: > 100 µM
[9]
  TGI: > 100 µM
[10]
  TGI: > 100 µM
[11]
  TGI: > 100 µM
[12]
  TGI: > 100 µM
[13]
  TGI: > 100 µM
[14]
  TGI: > 100 µM
[15]
  TGI: > 100 µM
[16]
  TGI: > 100 µM
[17]
  TGI: > 100 µM
[18]
  TGI: > 100 µM
[19]
  TGI: > 100 µM
[20]
  TGI: > 100 µM
[21]
  TGI: > 100 µM
[22]
  TGI: > 100 µM
[23]
  TGI: > 100 µM
[24]
  TGI: > 100 µM
[25]
  TGI: > 100 µM
[26]
  TGI: > 100 µM
[27]
  TGI: > 100 µM
[28]
  TGI: > 100 µM
[29]
  TGI: > 100 µM
[30]
  TGI: > 100 µM
[31]
  TGI: > 100 µM
[32]
  TGI: > 100 µM
[33]
  TGI: > 100 µM
[34]
  TGI: > 100 µM
[35]
  TGI: > 100 µM
[36]
  TGI: > 100 µM
[37]
  TGI: > 100 µM
[38]
  TGI: > 100 µM
[39]
  TGI: > 100 µM
[40]
  TGI: > 100 µM
[41]
  TGI: > 100 µM
[42]
  TGI: > 100 µM
[43]
  TGI: > 100 µM
[44]
  TGI: > 100 µM
[45]
  TGI: > 100 µM
[46]
  TGI: > 100 µM
[47]
  TGI: > 100 µM
[48]
  TGI: > 100 µM
[49]
  TGI: > 100 µM
[50]
  TGI: > 100 µM
[51]
  TGI: > 100 µM

## COC(=O)c1ccccc1C1CN=NC12Cc1c(ccc(C)c1C)C2=O (stereo not given)
[1]
  TGI: > 100 µM
[2]
  TGI: > 100 µM
[3]
  TGI: > 100 µM
[4]
  TGI: > 100 µM
[52]
  TGI: 89.1 µM
[5]
  TGI: > 100 µM
[6]
  TGI: > 100 µM
[7]
  TGI: > 100 µM
[8]
  TGI: > 100 µM
[9]
  TGI: > 100 µM
[10]
  TGI: > 100 µM
[11]
  TGI: > 100 µM
[12]
  TGI: > 100 µM
[13]
  TGI: > 100 µM
[14]
  TGI: > 100 µM
[15]
  TGI: > 100 µM
[16]
  TGI: > 100 µM
[17]
  TGI: > 100 µM
[18]
  TGI: > 100 µM
[19]
  TGI: > 100 µM
[53]
  TGI: > 100 µM
[21]
  TGI: > 100 µM
[22]
  TGI: > 100 µM
[54]
  TGI: > 100 µM
[24]
  TGI: > 100 µM
[25]
  TGI: > 100 µM
[26]
  TGI: > 100 µM
[27]
  TGI: > 100 µM
[28]
  TGI: > 100 µM
[29]
  TGI: > 100 µM
[30]
  TGI: > 100 µM
[31]
  TGI: > 100 µM
[32]
  TGI: > 100 µM
[33]
  TGI: > 100 µM
[34]
  TGI: > 100 µM
[35]
  TGI: > 100 µM
[36]
  TGI: > 100 µM
[55]
  TGI: > 100 µM
[37]
  TGI: > 100 µM
[38]
  TGI: > 100 µM
[39]
  TGI: > 100 µM
[40]
  TGI: > 100 µM
[41]
  TGI: > 100 µM
[42]
  TGI: > 100 µM
[43]
  TGI: > 100 µM
[44]
  TGI: > 100 µM
[45]
  TGI: > 100 µM
[46]
  TGI: > 100 µM
[47]
  TGI: > 100 µM
[48]
  TGI: > 100 µM
[49]
  TGI: > 100 µM
[56]
  TGI: 84.2 µM
[50]
  TGI: > 100 µM
[51]
  TGI: > 100 µM
[57]
  TGI: > 100 µM
[58]
  TGI: > 100 µM

## O=c1c2ccccc2sc2c(CO)ccc(NCCN3CCCCC3)c12
[1]
  TGI: 12.8 µM
[2]
  TGI: 3.82 µM
[3]
  TGI: 11.9 µM
[4]
  TGI: 7.71 µM
[52]
  TGI: 19.5 µM
[5]
  TGI: 15.9 µM
[6]
  TGI: 10.3 µM
[7]
  TGI: 8.54 µM
[8]
  TGI: 12.2 µM
[9]
  TGI: 11 µM
[10]
  TGI: 14.8 µM
[11]
  TGI: 5.36 µM
[12]
  TGI: 11.4 µM
[13]
  TGI: 17.6 µM
[14]
  TGI: 16.6 µM
[15]
  TGI: 11.8 µM
[16]
  TGI: 15.5 µM
[17]
  TGI: 23 µM
[18]
  TGI: 5.36 µM
[59]
  TGI: 16.2 µM
[19]
  TGI: 17.4 µM
[20]
  TGI: 4.6 µM
[21]
  TGI: 16.3 µM
[22]
  TGI: 9.97 µM
[23]
  TGI: 7.71 µM
[54]
  TGI: 10.6 µM
[24]
  TGI: 19.4 µM
[25]
  TGI: 13.1 µM
[26]
  TGI: 7.72 µM
[27]
  TGI: 15.1 µM
[28]
  TGI: 7.18 µM
[29]
  TGI: 14.2 µM
[30]
  TGI: 13.3 µM
[31]
  TGI: 15 µM
[32]
  TGI: 15.6 µM
[33]
  TGI: 3.99 µM
[34]
  TGI: 12.1 µM
[35]
  TGI: 9.45 µM
[36]
  TGI: 20.6 µM
[55]
  TGI: 11.2 µM
[37]
  TGI: 14 µM
[38]
  TGI: 11.6 µM
[39]
  TGI: 3.86 µM
[40]
  TGI: 15.6 µM
[41]
  TGI: 20 µM
[42]
  TGI: 4.78 µM
[43]
  TGI: 3.19 µM
[44]
  TGI: 4.98 µM
[45]
  TGI: 8.37 µM
[46]
  TGI: 5.2 µM
[47]
  TGI: 11 µM
[48]
  TGI: 9.46 µM
[49]
  TGI: 7.92 µM
[56]
  TGI: 20.9 µM
[50]
  TGI: 14.6 µM
[51]
  TGI: 3.76 µM
[57]
  TGI: 14.5 µM
[58]
  TGI: 9.61 µM
